The results in this text go back to ChEMBL document CHEMBL5442175, “EUbOPEN Chemogenomics Library - PDSP Secondary Binding” (2024).

The structures appear in SMILES notation.

Experiment [1] concerns the target 5-hydroxytryptamine receptor 2B (Homo sapiens, UniProt P41595). In words: PDSP Secondary Binding target: HTR2B - Compounds are tested at 10 uM concentration, plate are incubated at room temperature in the dark for 90 minutes. Reaction are stopped by vacuum filtration onto 0.3% polyethyleneimine soaked filter mats using Filtermate harvester. Scintillation cocktail is then melted onto microwave-dried filters on a hot plate and the radio activity is counted in Microbia counter.

The target of another experiment is D(1B) dopamine receptor (Homo sapiens, UniProt P21918). In words: PDSP Secondary Binding target: DRD5 - Compounds are tested at 10 uM concentration, plate are incubated at room temperature in the dark for 90 minutes. Reaction are stopped by vacuum filtration onto 0.3% polyethyleneimine soaked filter mats using Filtermate harvester. Scintillation cocktail is then melted onto microwave-dried filters on a hot plate and the radio activity is counted in Microbia counter.

Experiment [2] deals with Kappa-type opioid receptor (Homo sapiens, UniProt P41145). In words: PDSP Secondary Binding target: OPRK1 - Compounds are tested at 10 uM concentration, plate are incubated at room temperature in the dark for 90 minutes. Reaction are stopped by vacuum filtration onto 0.3% polyethyleneimine soaked filter mats using Filtermate harvester. Scintillation cocktail is then melted onto microwave-dried filters on a hot plate and the radio activity is counted in Microbia counter.

In experiment [3] the target is Sodium-dependent dopamine transporter (Homo sapiens, UniProt Q01959). The experiment can be described thus: PDSP Secondary Binding target: SLC6A3 - Compounds are tested at 10 uM concentration, plate are incubated at room temperature in the dark for 90 minutes. Reaction are stopped by vacuum filtration onto 0.3% polyethyleneimine soaked filter mats using Filtermate harvester. Scintillation cocktail is then melted onto microwave-dried filters on a hot plate and the radio activity is counted in Microbia counter.

Experiment [4] addresses T1, 5-hydroxytryptamine receptor 2C (Homo sapiens, UniProt P28335).
T1 sequence (P28335 whole entry): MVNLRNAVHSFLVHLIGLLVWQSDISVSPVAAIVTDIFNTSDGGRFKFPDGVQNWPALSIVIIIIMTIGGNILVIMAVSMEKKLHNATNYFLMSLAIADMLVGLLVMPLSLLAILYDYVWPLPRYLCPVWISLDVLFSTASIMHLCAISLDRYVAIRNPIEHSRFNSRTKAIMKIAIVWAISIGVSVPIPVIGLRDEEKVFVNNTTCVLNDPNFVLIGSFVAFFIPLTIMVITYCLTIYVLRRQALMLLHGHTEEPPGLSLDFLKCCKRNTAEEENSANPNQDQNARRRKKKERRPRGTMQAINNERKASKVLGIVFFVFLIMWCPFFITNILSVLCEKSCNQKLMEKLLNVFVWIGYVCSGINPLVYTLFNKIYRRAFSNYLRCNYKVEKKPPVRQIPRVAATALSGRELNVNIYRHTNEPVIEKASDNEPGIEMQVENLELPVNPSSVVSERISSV
The experiment can be described thus: PDSP Secondary Binding target: HTR2C - Compounds are tested at 10 uM concentration, plate are incubated at room temperature in the dark for 90 minutes. Reaction are stopped by vacuum filtration onto 0.3% polyethyleneimine soaked filter mats using Filtermate harvester. Scintillation cocktail is then melted onto microwave-dried filters on a hot plate and the radio activity is counted in Microbia counter.

Another experiment has as its target Mu-type opioid receptor (Homo sapiens, UniProt P35372). In words: PDSP Secondary Binding target: OPRM1 - Compounds are tested at 10 uM concentration, plate are incubated at room temperature in the dark for 90 minutes. Reaction are stopped by vacuum filtration onto 0.3% polyethyleneimine soaked filter mats using Filtermate harvester. Scintillation cocktail is then melted onto microwave-dried filters on a hot plate and the radio activity is counted in Microbia counter.

Experiment [5] deals with 5-hydroxytryptamine receptor 2A (Homo sapiens, UniProt P28223). In words: PDSP Secondary Binding target: HTR2A - Compounds are tested at 10 uM concentration, plate are incubated at room temperature in the dark for 90 minutes. Reaction are stopped by vacuum filtration onto 0.3% polyethyleneimine soaked filter mats using Filtermate harvester. Scintillation cocktail is then melted onto microwave-dried filters on a hot plate and the radio activity is counted in Microbia counter.

Experiment [6] addresses Sodium-dependent noradrenaline transporter (Homo sapiens, UniProt P23975). The experiment can be described thus: PDSP Secondary Binding target: SLC6A2 - Compounds are tested at 10 uM concentration, plate are incubated at room temperature in the dark for 90 minutes. Reaction are stopped by vacuum filtration onto 0.3% polyethyleneimine soaked filter mats using Filtermate harvester. Scintillation cocktail is then melted onto microwave-dried filters on a hot plate and the radio activity is counted in Microbia counter.

Experiment [7] addresses Sigma intracellular receptor 2 (Homo sapiens, UniProt Q5BJF2). In words: PDSP Secondary Binding target: TMEM97 - Compounds are tested at 10 uM concentration, plate are incubated at room temperature in the dark for 90 minutes. Reaction are stopped by vacuum filtration onto 0.3% polyethyleneimine soaked filter mats using Filtermate harvester. Scintillation cocktail is then melted onto microwave-dried filters on a hot plate and the radio activity is counted in Microbia counter.

The target of experiment [8] is Beta-3 adrenergic receptor (Homo sapiens, UniProt P13945). In words: PDSP Secondary Binding target: ADRB3 - Compounds are tested at 10 uM concentration, plate are incubated at room temperature in the dark for 90 minutes. Reaction are stopped by vacuum filtration onto 0.3% polyethyleneimine soaked filter mats using Filtermate harvester. Scintillation cocktail is then melted onto microwave-dried filters on a hot plate and the radio activity is counted in Microbia counter.

The target in experiment [9] is Sigma non-opioid intracellular receptor 1 (Homo sapiens, UniProt Q99720). The experiment can be described thus: PDSP Secondary Binding target: SIGMAR1 - Compounds are tested at 10 uM concentration, plate are incubated at room temperature in the dark for 90 minutes. Reaction are stopped by vacuum filtration onto 0.3% polyethyleneimine soaked filter mats using Filtermate harvester. Scintillation cocktail is then melted onto microwave-dried filters on a hot plate and the radio activity is counted in Microbia counter.

Experiment [10] addresses Sodium-dependent serotonin transporter (Homo sapiens, UniProt P31645). The experiment can be described thus: PDSP Secondary Binding target: SLC6A4 - Compounds are tested at 10 uM concentration, plate are incubated at room temperature in the dark for 90 minutes. Reaction are stopped by vacuum filtration onto 0.3% polyethyleneimine soaked filter mats using Filtermate harvester. Scintillation cocktail is then melted onto microwave-dried filters on a hot plate and the radio activity is counted in Microbia counter.

The target in experiment [11] is T2, Alpha-2A adrenergic receptor (Homo sapiens, UniProt P08913).
T2 sequence (P08913 whole entry): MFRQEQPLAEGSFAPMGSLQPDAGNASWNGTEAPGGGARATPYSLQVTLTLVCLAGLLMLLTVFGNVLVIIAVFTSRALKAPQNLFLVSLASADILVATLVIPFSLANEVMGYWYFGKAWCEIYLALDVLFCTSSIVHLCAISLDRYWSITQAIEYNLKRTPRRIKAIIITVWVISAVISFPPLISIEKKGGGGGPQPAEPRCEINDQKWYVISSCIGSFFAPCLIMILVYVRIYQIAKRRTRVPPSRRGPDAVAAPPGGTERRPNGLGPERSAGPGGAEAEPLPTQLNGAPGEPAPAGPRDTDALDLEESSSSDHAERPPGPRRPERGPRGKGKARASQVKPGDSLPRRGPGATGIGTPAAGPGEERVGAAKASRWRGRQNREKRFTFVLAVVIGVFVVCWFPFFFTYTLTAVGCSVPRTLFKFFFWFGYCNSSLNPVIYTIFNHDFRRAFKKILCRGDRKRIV
The experiment can be described thus: PDSP Secondary Binding target: ADRA2A - Compounds are tested at 10 uM concentration, plate are incubated at room temperature in the dark for 90 minutes. Reaction are stopped by vacuum filtration onto 0.3% polyethyleneimine soaked filter mats using Filtermate harvester. Scintillation cocktail is then melted onto microwave-dried filters on a hot plate and the radio activity is counted in Microbia counter.

A further experiment has as its target D(2) dopamine receptor (Homo sapiens, UniProt P14416). In words: PDSP Secondary Binding target: DRD2 - Compounds are tested at 10 uM concentration, plate are incubated at room temperature in the dark for 90 minutes. Reaction are stopped by vacuum filtration onto 0.3% polyethyleneimine soaked filter mats using Filtermate harvester. Scintillation cocktail is then melted onto microwave-dried filters on a hot plate and the radio activity is counted in Microbia counter.

Experiment [12] addresses T3, Muscarinic acetylcholine receptor M5 (Homo sapiens, UniProt P08912).
T3 sequence (P08912 whole entry): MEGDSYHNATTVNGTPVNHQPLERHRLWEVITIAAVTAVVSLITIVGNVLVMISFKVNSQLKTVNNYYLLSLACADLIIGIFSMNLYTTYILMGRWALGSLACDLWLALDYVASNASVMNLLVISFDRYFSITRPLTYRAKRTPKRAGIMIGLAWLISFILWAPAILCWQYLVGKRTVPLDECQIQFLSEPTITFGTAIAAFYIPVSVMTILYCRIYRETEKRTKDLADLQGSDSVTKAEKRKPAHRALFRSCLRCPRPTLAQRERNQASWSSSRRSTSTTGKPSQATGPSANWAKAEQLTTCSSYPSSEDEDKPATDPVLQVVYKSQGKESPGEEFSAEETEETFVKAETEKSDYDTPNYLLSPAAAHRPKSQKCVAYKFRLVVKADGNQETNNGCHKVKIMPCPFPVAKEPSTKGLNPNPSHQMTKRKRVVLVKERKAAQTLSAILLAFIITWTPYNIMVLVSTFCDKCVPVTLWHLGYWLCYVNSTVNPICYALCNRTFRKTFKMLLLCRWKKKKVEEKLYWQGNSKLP
In words: PDSP Secondary Binding target: CHRM5 - Compounds are tested at 10 uM concentration, plate are incubated at room temperature in the dark for 90 minutes. Reaction are stopped by vacuum filtration onto 0.3% polyethyleneimine soaked filter mats using Filtermate harvester. Scintillation cocktail is then melted onto microwave-dried filters on a hot plate and the radio activity is counted in Microbia counter.

Experiment [13] has as its target T4, Alpha-2B adrenergic receptor (Homo sapiens, UniProt P18089).
T4 sequence (P18089 whole entry): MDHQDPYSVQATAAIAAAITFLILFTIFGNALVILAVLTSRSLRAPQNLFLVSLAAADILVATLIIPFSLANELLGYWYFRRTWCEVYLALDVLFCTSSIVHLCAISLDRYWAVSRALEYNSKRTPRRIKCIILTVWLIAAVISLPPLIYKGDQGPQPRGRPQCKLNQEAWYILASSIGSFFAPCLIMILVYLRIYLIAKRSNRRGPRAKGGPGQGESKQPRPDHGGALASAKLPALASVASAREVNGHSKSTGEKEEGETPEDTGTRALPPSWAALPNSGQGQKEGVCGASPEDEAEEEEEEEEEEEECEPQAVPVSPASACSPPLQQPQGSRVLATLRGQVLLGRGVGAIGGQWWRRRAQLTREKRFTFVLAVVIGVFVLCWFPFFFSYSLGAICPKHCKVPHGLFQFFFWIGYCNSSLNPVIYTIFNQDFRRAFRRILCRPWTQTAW
In words: PDSP Secondary Binding target: ADRA2B - Compounds are tested at 10 uM concentration, plate are incubated at room temperature in the dark for 90 minutes. Reaction are stopped by vacuum filtration onto 0.3% polyethyleneimine soaked filter mats using Filtermate harvester. Scintillation cocktail is then melted onto microwave-dried filters on a hot plate and the radio activity is counted in Microbia counter.

In the next experiment the target is D(3) dopamine receptor (Homo sapiens, UniProt P35462). The experiment can be described thus: PDSP Secondary Binding target: DRD3 - Compounds are tested at 10 uM concentration, plate are incubated at room temperature in the dark for 90 minutes. Reaction are stopped by vacuum filtration onto 0.3% polyethyleneimine soaked filter mats using Filtermate harvester. Scintillation cocktail is then melted onto microwave-dried filters on a hot plate and the radio activity is counted in Microbia counter.

Experiment [14] concerns the target T5, Alpha-2C adrenergic receptor (Homo sapiens, UniProt P18825).
T5 sequence (P18825 whole entry): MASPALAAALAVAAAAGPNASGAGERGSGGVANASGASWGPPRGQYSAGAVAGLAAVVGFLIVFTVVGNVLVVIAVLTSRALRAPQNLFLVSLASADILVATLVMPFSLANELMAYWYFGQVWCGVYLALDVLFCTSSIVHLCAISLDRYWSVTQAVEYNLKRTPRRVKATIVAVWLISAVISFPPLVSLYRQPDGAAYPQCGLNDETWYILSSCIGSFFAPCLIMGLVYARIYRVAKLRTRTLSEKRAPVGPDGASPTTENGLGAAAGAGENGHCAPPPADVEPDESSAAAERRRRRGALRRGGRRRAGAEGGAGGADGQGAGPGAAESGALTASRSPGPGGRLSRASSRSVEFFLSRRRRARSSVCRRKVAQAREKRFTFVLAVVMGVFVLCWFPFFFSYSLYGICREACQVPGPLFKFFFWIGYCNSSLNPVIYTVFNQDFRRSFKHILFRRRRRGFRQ
In words: PDSP Secondary Binding target: ADRA2C - Compounds are tested at 10 uM concentration, plate are incubated at room temperature in the dark for 90 minutes. Reaction are stopped by vacuum filtration onto 0.3% polyethyleneimine soaked filter mats using Filtermate harvester. Scintillation cocktail is then melted onto microwave-dried filters on a hot plate and the radio activity is counted in Microbia counter.

Sequence of Sigma intracellular receptor 2 (Q5BJF2 whole entry): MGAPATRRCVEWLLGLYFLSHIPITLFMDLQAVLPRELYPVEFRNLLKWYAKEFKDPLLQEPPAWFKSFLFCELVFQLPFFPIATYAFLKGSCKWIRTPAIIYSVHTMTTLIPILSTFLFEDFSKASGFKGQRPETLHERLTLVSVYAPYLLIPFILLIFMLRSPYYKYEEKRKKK
Sequence of D(1B) dopamine receptor (P21918 whole entry): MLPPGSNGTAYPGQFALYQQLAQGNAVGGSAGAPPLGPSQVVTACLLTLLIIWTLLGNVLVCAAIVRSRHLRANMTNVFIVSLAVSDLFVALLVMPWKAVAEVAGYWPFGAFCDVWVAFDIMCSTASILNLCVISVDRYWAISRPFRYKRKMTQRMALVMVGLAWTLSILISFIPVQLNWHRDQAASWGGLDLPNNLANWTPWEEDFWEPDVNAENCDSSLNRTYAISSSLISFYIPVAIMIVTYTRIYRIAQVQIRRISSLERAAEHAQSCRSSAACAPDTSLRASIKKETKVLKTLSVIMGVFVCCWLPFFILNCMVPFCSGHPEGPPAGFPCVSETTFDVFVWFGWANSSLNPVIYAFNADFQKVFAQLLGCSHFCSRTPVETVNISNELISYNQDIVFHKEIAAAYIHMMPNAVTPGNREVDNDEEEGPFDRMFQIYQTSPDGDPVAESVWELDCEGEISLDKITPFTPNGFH
Sequence of Sigma non-opioid intracellular receptor 1 (Q99720 whole entry): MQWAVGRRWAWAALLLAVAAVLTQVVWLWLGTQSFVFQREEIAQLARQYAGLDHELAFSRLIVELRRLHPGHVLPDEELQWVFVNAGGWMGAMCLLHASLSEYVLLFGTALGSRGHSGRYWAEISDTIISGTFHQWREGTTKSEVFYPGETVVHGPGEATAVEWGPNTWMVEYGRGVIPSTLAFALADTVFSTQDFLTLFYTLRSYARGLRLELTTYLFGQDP
Sequence of Beta-3 adrenergic receptor (P13945 whole entry): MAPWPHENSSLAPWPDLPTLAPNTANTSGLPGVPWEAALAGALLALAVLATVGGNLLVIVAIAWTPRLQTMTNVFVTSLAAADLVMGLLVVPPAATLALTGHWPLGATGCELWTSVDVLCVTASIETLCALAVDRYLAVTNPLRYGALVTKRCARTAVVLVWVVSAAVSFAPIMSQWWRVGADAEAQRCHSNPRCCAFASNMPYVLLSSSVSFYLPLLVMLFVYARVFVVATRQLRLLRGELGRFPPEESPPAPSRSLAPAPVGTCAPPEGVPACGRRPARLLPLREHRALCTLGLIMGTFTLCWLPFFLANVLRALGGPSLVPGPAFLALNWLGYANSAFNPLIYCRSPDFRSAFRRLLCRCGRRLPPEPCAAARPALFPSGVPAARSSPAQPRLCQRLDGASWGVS
Sequence of Mu-type opioid receptor (P35372 whole entry): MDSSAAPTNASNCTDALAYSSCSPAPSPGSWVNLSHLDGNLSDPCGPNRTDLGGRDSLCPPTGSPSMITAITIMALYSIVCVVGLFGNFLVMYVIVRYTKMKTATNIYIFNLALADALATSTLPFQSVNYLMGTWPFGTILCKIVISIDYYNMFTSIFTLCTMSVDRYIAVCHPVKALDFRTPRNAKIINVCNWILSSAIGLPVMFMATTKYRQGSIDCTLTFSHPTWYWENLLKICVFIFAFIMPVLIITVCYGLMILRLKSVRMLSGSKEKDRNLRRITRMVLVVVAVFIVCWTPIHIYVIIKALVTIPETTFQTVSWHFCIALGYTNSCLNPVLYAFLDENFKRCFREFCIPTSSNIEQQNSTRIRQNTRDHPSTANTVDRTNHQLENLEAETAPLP
Sequence of 5-hydroxytryptamine receptor 2A (P28223 whole entry): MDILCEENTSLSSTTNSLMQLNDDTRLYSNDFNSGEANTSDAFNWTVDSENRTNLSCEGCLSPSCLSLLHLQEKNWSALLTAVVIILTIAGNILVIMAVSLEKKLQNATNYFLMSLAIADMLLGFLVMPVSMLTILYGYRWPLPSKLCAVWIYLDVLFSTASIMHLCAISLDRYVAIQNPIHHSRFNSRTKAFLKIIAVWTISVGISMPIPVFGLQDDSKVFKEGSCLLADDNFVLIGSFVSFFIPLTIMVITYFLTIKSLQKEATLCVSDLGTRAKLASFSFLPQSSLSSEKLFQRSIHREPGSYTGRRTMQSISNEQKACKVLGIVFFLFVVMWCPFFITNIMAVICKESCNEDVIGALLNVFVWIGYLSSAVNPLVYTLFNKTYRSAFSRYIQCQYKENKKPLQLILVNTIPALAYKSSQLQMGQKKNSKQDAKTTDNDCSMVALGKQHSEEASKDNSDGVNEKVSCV
Sequence of Kappa-type opioid receptor (P41145 whole entry): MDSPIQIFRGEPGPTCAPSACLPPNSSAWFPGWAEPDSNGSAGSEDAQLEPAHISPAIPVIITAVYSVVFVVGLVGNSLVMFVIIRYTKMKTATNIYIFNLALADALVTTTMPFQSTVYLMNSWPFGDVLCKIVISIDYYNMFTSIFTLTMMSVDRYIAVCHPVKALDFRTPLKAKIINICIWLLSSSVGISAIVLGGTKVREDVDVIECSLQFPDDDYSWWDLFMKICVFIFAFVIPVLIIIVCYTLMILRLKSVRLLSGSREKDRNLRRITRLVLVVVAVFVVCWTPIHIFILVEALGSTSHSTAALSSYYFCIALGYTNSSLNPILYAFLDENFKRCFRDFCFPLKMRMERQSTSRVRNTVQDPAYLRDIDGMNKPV
Sequence of Sodium-dependent noradrenaline transporter (P23975 whole entry): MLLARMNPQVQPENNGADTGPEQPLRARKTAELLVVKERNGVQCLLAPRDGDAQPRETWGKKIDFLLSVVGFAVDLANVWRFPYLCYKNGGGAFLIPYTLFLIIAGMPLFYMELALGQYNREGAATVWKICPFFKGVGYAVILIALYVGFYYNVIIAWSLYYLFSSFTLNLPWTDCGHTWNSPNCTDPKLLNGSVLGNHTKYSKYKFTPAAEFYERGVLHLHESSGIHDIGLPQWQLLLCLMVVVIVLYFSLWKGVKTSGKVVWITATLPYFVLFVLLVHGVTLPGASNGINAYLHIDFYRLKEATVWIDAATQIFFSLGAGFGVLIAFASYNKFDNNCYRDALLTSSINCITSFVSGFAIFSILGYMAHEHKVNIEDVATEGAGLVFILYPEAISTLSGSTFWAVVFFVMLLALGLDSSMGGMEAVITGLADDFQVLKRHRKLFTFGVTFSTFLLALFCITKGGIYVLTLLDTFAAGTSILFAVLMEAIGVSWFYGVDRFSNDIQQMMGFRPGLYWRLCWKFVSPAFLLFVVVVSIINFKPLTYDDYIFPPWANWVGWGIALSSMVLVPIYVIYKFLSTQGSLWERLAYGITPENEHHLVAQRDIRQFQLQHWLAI
Sequence of Sodium-dependent serotonin transporter (P31645 whole entry): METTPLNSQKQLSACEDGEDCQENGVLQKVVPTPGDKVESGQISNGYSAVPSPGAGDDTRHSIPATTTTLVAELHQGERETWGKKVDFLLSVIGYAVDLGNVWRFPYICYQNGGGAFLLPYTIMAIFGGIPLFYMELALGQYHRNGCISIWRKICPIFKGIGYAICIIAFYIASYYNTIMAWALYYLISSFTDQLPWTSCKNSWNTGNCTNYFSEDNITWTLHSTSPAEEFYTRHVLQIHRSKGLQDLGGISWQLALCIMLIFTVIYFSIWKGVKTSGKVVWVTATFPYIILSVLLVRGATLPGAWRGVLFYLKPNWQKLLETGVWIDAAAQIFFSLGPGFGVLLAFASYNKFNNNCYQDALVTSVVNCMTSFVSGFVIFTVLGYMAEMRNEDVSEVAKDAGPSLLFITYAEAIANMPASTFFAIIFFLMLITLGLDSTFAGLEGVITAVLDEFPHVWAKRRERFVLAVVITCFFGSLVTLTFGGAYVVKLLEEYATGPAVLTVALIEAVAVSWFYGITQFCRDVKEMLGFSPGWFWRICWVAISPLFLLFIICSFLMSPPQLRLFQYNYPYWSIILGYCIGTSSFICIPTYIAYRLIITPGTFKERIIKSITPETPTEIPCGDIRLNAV
Sequence of D(2) dopamine receptor (P14416 whole entry): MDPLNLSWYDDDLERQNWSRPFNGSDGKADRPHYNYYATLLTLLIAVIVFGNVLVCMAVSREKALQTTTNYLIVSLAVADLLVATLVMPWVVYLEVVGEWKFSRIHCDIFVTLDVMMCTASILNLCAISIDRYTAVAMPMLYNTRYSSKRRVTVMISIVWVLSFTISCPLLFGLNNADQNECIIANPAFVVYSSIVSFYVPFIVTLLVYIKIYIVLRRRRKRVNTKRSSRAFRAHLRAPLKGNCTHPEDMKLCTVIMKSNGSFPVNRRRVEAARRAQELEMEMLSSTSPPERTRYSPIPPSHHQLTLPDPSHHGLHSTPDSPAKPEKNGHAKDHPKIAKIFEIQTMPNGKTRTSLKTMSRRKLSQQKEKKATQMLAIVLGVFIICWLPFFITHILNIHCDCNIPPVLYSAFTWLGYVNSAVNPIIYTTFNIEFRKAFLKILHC
Sequence of D(3) dopamine receptor (P35462 whole entry): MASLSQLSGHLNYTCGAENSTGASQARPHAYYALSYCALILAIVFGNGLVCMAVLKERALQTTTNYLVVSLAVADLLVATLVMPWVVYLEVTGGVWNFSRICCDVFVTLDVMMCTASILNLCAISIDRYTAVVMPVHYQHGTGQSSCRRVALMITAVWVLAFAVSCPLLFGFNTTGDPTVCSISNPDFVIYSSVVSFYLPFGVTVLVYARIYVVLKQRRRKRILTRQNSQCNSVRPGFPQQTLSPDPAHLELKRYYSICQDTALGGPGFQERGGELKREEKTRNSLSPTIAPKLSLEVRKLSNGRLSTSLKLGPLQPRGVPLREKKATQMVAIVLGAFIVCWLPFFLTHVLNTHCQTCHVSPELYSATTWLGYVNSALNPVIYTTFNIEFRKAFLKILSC

Take `O=C(c1cc2c(cc1F)OC(c1ccc(F)cc1)(c1ccc(Cl)cc1Cl)O2)N1CCOCC1` (configuration not stated): the Ki (as a rule, the dissociation constant of the complex between target and ligand, obtained from inhibition or displacement) was 0.607 µM in [1]; 0.708 µM on D(1B) dopamine receptor; 0.503 µM in experiment [2]; 3.46 µM in experiment [3]; 0.319 µM in experiment [4]; 3.14 µM on Mu-type opioid receptor. The values for the Ki in experiment [5], in experiment [6] and in [7] were 2.66 µM, 2.54 µM and 0.509 µM, respectively.

In the case of `CC(C)NCC(O)c1ccc(N)c(C#N)c1` (configuration not stated) [CIMATEROL], the affinity in experiment [8] corresponds to a Ki of 1.87 µM.

As for `OC[C@H]1O[C@@H](n2cnc3c(NC4CCCC4)ncnc32)[C@H](O)[C@@H]1O` [N6-CYCLOPENTYLADENOSINE], the results for the Ki (on D(1B) dopamine receptor; in experiment [9]) were above 10 µM and 2.61 µM, respectively.

In the case of `Cc1cc(NC(=O)NCCN2CCC(O)(Cc3ccccc3)CC2)c2ccccc2n1` [PALOSURAN], the Ki in experiment [9] stood at 1.7 µM; in experiment [10], 0.995 µM; in [4] it was 0.139 µM; in [11], 1.02 µM; at D(2) dopamine receptor, 0.596 µM; in experiment [5], 1.59 µM. The figures for the Ki in experiment [6] and in experiment [7] were 1.09 µM and 0.956 µM, respectively.

Take `CCC[C@H](Oc1cc(C)c(-n2cc(C(F)(F)F)cn2)c(C)c1)c1ccc(C(=O)NCCC(=O)O)cc1` [PF-06291874]: the Ki in experiment [12] was 8.58 µM; in experiment [8], above 10 µM; in experiment [11], above 10 µM.

Turning to `CC1CCN(CC[C@H]2CCCN2S(=O)(=O)c2cccc(O)c2)CC1`, the Ki in [13] was 0.311 µM; at D(1B) dopamine receptor it was above 10 µM; in [2], 0.448 µM; in experiment [10], above 10 µM; on Mu-type opioid receptor, 0.185 µM; on D(3) dopamine receptor, 0.568 µM. In addition, the Ki in experiment [11] is 1.18 µM; in experiment [14], 1.74 µM; in experiment [7], 0.0102 µM.
